The target of test [1] is kras g12d tr-fret (Homo sapiens, UniProt P01116, G12D). Put plainly: KRAS G12D TR-FRET Assay. Here is the method: The His-tagged KRAS G12D protein (Amgen) was diluted to 20 nM in Assay Buffer (20 mM HEPES, pH 7.4, 10 mM MgCl2, 50 mM NaCl, 0.1% BSA, 0.01% Tween-20, 10 μM GDP) and 2 μL was added to the appropriate wells of the 384-well plate. The plate was incubated for 30 minutes at rt. Biotinylated KRPep-2d substrate (Amgen) was diluted to […] in Assay Buffer and 2 AL was added to all wells and incubated for 1 hour at room temperature. Detection Reagent (0.4 nM LANCE Eu-W1024 Anti-6×His (Perkin Elmer AD0401), 5 nM streptavidin-d2 (Cisbio 610SADLA)) was prepared in Assay Buffer, then 4 AL was added to the plate and incubated for 1 h at rt.
Sequence of kras g12d tr-fret (P01116 whole entry G12D): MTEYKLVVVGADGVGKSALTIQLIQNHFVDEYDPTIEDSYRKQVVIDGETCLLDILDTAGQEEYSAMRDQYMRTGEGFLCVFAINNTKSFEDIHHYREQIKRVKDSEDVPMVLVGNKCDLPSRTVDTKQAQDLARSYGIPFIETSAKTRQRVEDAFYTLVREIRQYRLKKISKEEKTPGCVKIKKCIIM
In general terms: Time-resolved FRET reads energy transfer from a long-lived donor to a nearby acceptor.

In test [2] the target is GTPase KRas [G12D,C118A] (Homo sapiens, UniProt P01116, C118A/G12D). Put plainly: KRAS G12D Coupled Nucleotide Exchange Assay. Here is the method: The assay plates were then read on a PerkinElmer En Vision Multilabel Reader, using AlphaScreen technology, and data were analyzed using a 4-parameter logistic model to calculate IC50 values.
Sequence of GTPase KRas [G12D,C118A] (P01116 whole entry G12D/C118A, looked up): as the sequence (P01116 whole entry G12D) above, with C118A counted along it

The source of these data is BindingDB's records for patent US20250163064 (Amgen, 2025).

Structures are written as SMILES.

As usually defined, the IC50 is the concentration that gives 50% inhibition. A high value points to lower potency. As to `N#Cc1c(N)sc2c(F)ccc(-c3c(Cl)cc4c(N5CC6CC(O)C(C6)C5)nc(OC[C@@]56CCCN5C[C@H](F)C6)nc4c3F)c12` (mixture of isomers) [US20250163064, Example 7], the figures for the IC50 in test [1] and in test [2] were 4 nM and 6 nM, respectively.

As for `N#Cc1c(N)sc2c(F)ccc(-c3c(Cl)cc4c(N5CCCC(C#N)CC5)nc(OC[C@@]56CCCN5C[C@H](F)C6)nc4c3F)c12` (some centres undefined) [US20250163064, Example 3], the figures for the 50% inhibitory concentration (IC50) in test [1] and in test [2] were 4 nM and 7 nM, respectively.

For the compound `N#Cc1c(N)sc2c(F)ccc(-c3c(Cl)cc4c(N5CCCC[C@@H](O)C5)nc(OC[C@@]56CCCN5C[C@H](F)C6)nc4c3F)c12` [US20250163064, Example 4], the half-inhibitory concentration (IC50) worked out at 4 nM in test [1] and 6 nM in test [2].

Regarding `N#Cc1c(N)sc2c(F)ccc(-c3c(Cl)cc4c(N5CCOCC(=O)C5)nc(OC[C@@]56CCCN5C[C@H](F)C6)nc4c3F)c12` [US20250163064, Example 6], the IC50 in test [2] stood at 5 nM. This counts as single-digit nanomolar.

As for `N#Cc1c(N)sc2c(F)ccc(-c3c(Cl)cc4c(N5CCCC6(CNC(=O)O6)C5)nc(OC[C@@]56CCCN5C[C@H](F)C6)nc4c3F)c12` (some centres undefined) [US20250163064, Example 17], the IC50 in test [1] amounted to 3 nM; in test [2], 6 nM.
